Entries after “also recorded” stand apart in the source; their conditions may differ. Where two headings read alike, the source gives them in different places.
How the values were obtained:
Phospholipase C (PLC-β1) = assay: Ratio of phospholipase C to actin by immunoblotting in cultured tracheal smooth muscle cells of treated mice; format: cell-based; details: asthmatic mice, chronic nadolol high dose treatment
Text: Cultured tracheal smooth muscle cells were obtained from mice exposed to the following treatments: NS/NC=nonasthmatic, non-challenged mice; S/C=asthmatic mice; Sal.Ac=asthmatic mice, acute salbutamol treatment; Sal.Ch=asthmatic mice, chronic salbutamol treatment; Nad.Ac=asthmatic mice, acute nadolol high dose treatment; and Nad.Ch=asthmatic mice, chronic nadolol high dose treatment.
After airway function experiments, the trachea were surgically removed from anesthetized mice that had been treated with drugs or vehicle. The trachea was minced and the cells plated and grown in culture. The smooth muscle cells grow faster and take over the culture dish. The cells were grown in medium which contained the drugs used in the treatment or vehicle controls. Phospholipase C (PLC-β1) was determined by immunoblotting with an antibody specific for the enzyme. Actin was used as a loading control and the amount of PLC-β1 was expressed as a ratio to actin.
The phospholipase C protein level was measured in these cultured cells and compared with the level of the structural protein actin as a baseline. The enzyme phospholipase C plays a key role in the pathway leading to asthmatic symptoms, as it cleaves a phosphodiester bond in membrane phospholipids, resulting in the formation of a 1,2-diglyceride. […]

[1] = test system: sensitized and allergen-challenged mice; assay: Acute nadolol with aminophylline, methacholine-induced bronchoconstriction; format: in vivo; details: nadolol 0.72 mg/kg i.p. 15 minutes prior to methacholine challenge
Method: Mice were sensitized to the allergen ovalbumin as described in Example 1. […] At time point 1 (time=−10 min) baseline airway resistance of the mice was determined. At time point 2 (time=−5 min) methacholine was infused into mice to reach their EC70.

β2-adrenergic receptor [2] = molecular target: β2-adrenergic receptor (Mus musculus, UniProt P18762); assay: β-adrenergic receptor density in lung membranes of treated asthmatic mice by ICYP radioligand binding; format: in vivo
Method: (§1) β2-adrenergic receptor numbers were measured in asthmatic mice as follows. […] Mice were sacrificed and lung membranes were isolated as follows. Frozen lung tissue was homogenized in an ice-cold buffer containing 0.32 M sucrose and 25 mM Tris (pH 7.4) using a polytron (Pro 200, Pro Scientific, Inc.). The homogenate was centrifuged at 1000×g for 10 min at 4° C. The resulting supernatant was centrifuged at 40,000×g for 20 min at 4° C. The pellet was suspended in an ice-cold 25 mM Tris-HCl buffer (pH 7.4) and centrifuged at 40,000×g for 20 min at 4° C. The final pellet was suspended in 200 μL of 25 mM Tris-HCl (pH 7.4); membrane protein concentration was determined by BCA protein assay kit. […] The incubation was done at 37° C. for 2 h and terminated by rapid vacuum filtration through glass fiber filters. The filters were washed three times with 250 μL of cold wash buffer (25 mM Tris-HCl, pH 7.4) and the radioactivity determined in a counter. […] Receptor densities are expressed as femtomoles of sites per milligram of protein. Bmax is determined by nonlinear regression of the saturation binding curves.

β2-adrenergic receptor [3] = assay: as above; format: in vivo; details: 2 days of administration
Method: as §1

asthmatic mice [4] = details: same mouse asthma model, Callaerts-Vegh et al. 2004, cited from earlier work
asthmatic mice [5] = assay: Airway resistance (Raw) response to methacholine provocation in murine model of asthma (forced oscillation); format: in vivo, Balb/cJ mice
Method: Balb/cJ mice aged 6 weeks (Jackson Animal Laboratory, Bar Harbor, Me.) were housed under specific pathogen-free conditions and fed a chicken ovalbumin-free diet. The Animal Research Ethics Boards of both the University of Houston and the Baylor College of Medicine approved all experiments reported here. […] Mice were sensitized with subcutaneous injection of 25 μg of ovalbumin adsorbed to aluminum hydroxide on protocol days 2, 9, and 16. Subsequently, mice were given 50 μL of saline solution containing 25 μg of ovalbumin intranasally, on a daily basis, from protocol days 23 through 27. A group of ovalbumin-sensitized saline-challenged mice serves as controls for systemic sensitization and respiratory challenges with ovalbumin. Prior to intranasal administrations, mice were sedated with halothane vapor.
To examine the effects of duration of β-adrenergic ligand therapy on the phenotype of the murine model of asthma, the experimental drugs were administered either acutely or chronically to different groups of asthmatic mice.
Asthmatic mice on acute therapy were given a single intravenous bolus infusion of either β-adrenergic drug or normal saline on protocol day 28, 15 minutes before airway responsiveness to methacholine was determined. […] Asthmatic mice on chronic therapy were treated with the β-adrenergic drug during protocol days 1 to 28. […] These concentrations were chosen based on those producing therapeutic effects in mice in previously published studies. The non-asthmatic mice were fed normal chow.
On protocol day 28, mice were anesthetized, tracheotomized, and connected to a computer-controlled small animal ventilator (Flexivent, Scientific Respiratory Equipment, Inc., Montreal, Canada). Airway resistance (Raw) was measured using the forced oscillation technique. The cellular composition of bronchoalveolar lavage fluid (BALF) was also determined.
To induce airway constriction, a solution containing 150 μg/mL of acetyl-α-methylcholine chloride (methacholine) (Sigma Chemical, St. Louis, Mo.) was infused intravenously at constant rates using a syringe infusion pump (Raze Scientific Instruments, Stanford, Conn.). […] Each methacholine dose was administered for 3 to 5 minutes, during which data were sampled at 1-minute intervals and then averaged.
The complex input impedance of the respiratory system was computed and the value of the real part of respiratory system impedance at 19.75 Hz was taken to reflect the magnitude of airway resistance (Raw). To examine the degree of airway responsiveness of each animal, the values for Raw as a function of methacholine doses were plotted. The largest value for Raw achieved in response to methacholine stimulation was referred to as Rawpeak. For mice that achieved a plateau in the methacholine dose-Raw response curve, the ED50 was calculated by linear interpolation using the GraphPad Prism4 (GraphPad Software, Inc.). […] The Bonferroni test was used to examine the statistical differences between experimental groups. The effects of acute drug treatments on baseline respiratory system mechanics were assessed using a two-tailed paired t-test. A value of P<0.05 was considered significant.
For these experiments, salbutamol was used for chronic administration at 0.5 mg/kg/day with a minipump and for acute administration at 0.15 mg/kg by i.v. bolus 15 minutes prior to challenge. Alprenolol was used at a high dose of 7200 ppm in chow or at a low dose of 720 ppm in chow. Carvedilol was used at a high dose of 2400 ppm in chow or at a low dose of 720 ppm in chow.

β2-adrenergic receptor [6] = assay: Immunohistochemistry of β2-adrenergic receptor levels in lung sections; format: in vivo, mice; details: chronic treatment versus untreated animals; epifluorescent microscopy
Method: The mice were sacrificed and the lungs excised. […] Lungs were embedded in OCT and 12-μm sections cut with a Tissue-Tek II cryostat. […] After 3 washes in PBS, the slides were blocked with 5% milk in PBS for 1 h, and then incubated overnight with anti-β2-adrenergic receptor antibody (1:200, Santa Cruz Biotechnology) in blocking solution. Slides were washed in PBS and incubated with secondary antibody (1:200, Cy3 goat anti-rabbit, 16 h at 4° C.). […] After washing with PBS, coverslips were mounted and viewed by epifluorescent microscopy.

Sequence of β2-adrenergic receptor (Mus musculus, UniProt P18762) (P18762 whole entry): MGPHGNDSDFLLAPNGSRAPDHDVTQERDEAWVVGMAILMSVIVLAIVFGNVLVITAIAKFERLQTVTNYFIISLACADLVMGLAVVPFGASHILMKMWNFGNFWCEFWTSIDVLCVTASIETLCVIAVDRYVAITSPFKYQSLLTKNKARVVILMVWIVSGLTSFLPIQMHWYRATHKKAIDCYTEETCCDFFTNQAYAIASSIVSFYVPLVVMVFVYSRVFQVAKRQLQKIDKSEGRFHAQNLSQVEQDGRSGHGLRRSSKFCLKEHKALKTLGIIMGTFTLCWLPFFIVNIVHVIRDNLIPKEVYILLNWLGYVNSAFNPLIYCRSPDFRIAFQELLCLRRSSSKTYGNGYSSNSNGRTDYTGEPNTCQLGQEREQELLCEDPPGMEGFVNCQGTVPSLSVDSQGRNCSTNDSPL

Structure (SMILES): CC(C)(C)NCC(O)COc1cccc2c1CC(O)C(O)C2 (centres unmarked) [Nadolol, nadolol]
- ratio of phospholipase C to actin (Phospholipase C (PLC-β1)): significantly decreases the activity of phospholipase C
- baseline airway resistance [1]: same baseline airway resistance as non-drug treated sensitized and allergen-challenged mice
- Bmax (β-adrenergic receptor density) (β2-adrenergic receptor [2]; 15 Minutes drug treatment, lung membranes of asthmatic mice, mean±SEM): 181.9 ± 48.28 femtomoles of sites per milligram of protein
- βmax (β-adrenergic receptor density) (β2-adrenergic receptor [2]; 28 Days drug treatment, lung membranes of asthmatic mice, mean±SEM): 785.5 ± 154.8 femtomoles of sites per milligram of protein
- Increased β2AR density (β2-adrenergic receptor [2]; 28 days of administration): showed an increase in receptor density
- increase of the level of β2-adrenergic receptors over the non-treated mice (β2-adrenergic receptor [2]; chronic administration, versus untreated methacholine-challenged asthmatic mice): nearly eightfold increase
- Increased β2AR density (β2-adrenergic receptor [3]): yes
- Increased β2AR density (β2-adrenergic receptor [3]; listed as nadolol): showed an increase in receptor density
- airway hyperresponsiveness (asthmatic mice [4]; administered acutely): worsens airway hyperresponsiveness
- airway hyperresponsiveness (asthmatic mice [4]; administered chronically): prevents airway hyperresponsiveness
- airway resistance (Raw) (asthmatic mice [5]; 1 ppm in chow): identical to the untreated mice
- airway responsiveness to methacholine provocation (airway resistance, Raw) (asthmatic mice [5]; asthmatic mice, chronic: 28 days (chow; salbutamol by osmotic minipump)): produced a decrease in airway responsiveness, which was more pronounced than that caused by carvedilol treatment; also recorded: reduced the responsiveness of asthmatic mice to methacholine provocation
- protection from airway hyperresponsiveness (asthmatic mice [5]; chronic administration, high and low dose in chow (Example 6)): providing protection from airway hyperresponsiveness
- labeling with anti-β2-adrenergic receptor antibodies in lungs (β2-adrenergic receptor [6]): considerably more intense; also recorded: increase in β-adrenergic receptor density

Reference: patent US9539221B2, “Method of treating airway diseases with β-adrenergic inverse agonists” (EGB ADVISORS, LLC, priority 2003, dated 2017)
